{"source": "patent US12565467B2", "about": "“Compounds, compositions, and methods for the treatment of inflammatory, degenerative, and neurodegenerative diseases” (Board of Supervisors of Louisiana State University and …, priority 2015, dated 2026)", "key": {"[1]": {"system": "human retinal pigment epithelial (RPE) cells deficient in 15-LOX-D1", "test": "Oxidative stress (OS) induced apoptosis / cell death in 15-LOX-1-deficient human RPE cells", "type": "cell-based", "source_text": "(§1) FIG. 4. (A) Cytoprotective effects of NPD1 like compounds on OS induced apoptosis. The results shown in this figure compare the cytoprotective capacities of long chain polyunsaturated fatty acids (VLC-PUFA), elovanoids ELV1 and ELV2, and neuroprotectin D1 (NPD1) in human retinal pigment epithelial (RPE) cells deficient in 15-LOX-D1 by measuring the protection of cell deaths induced by oxidative stress (OS) by these compounds. […] (B) Elovanoid precursors protect human retinal pigment epithelial cells deficient in 15-LOX-1, unlike DHA, from oxidative stress conditions.\nFIG. 5. (A) Effect of PD146176 on VLC-PUFA-inhibited apoptosis induced by OS in ARPE-19 cells. […] It is evident that 32:6 and 34:6 LCAF were able to induce a substantial amount (55 and 48% respectively) of neuroprotection compared to PD 146176 (22%) when the stressed cells were treated with 5 μm of 15-LOX-D1 inhibitor. It can be concluded that since PD146176 is the inhibitor of 15-lipooxygenase enzyme, it might be protecting the stressed RPE cells by accumulating neuroprotective agents inside the cells. (B) Comparison of cytoprotective capacities of NPD1, C32:6 and C34:6 VLC-PUFA on oxidative stress-induced apoptosis in 15-LOX-1 cells. Shown here is the comparison of neuroprotection in a 15-LOX-1-deficient cell line under oxidative stress with 32:6 and 34:6 VLC-PUFA along with NPD1. 32:6 and 34:6 LCAF were able to induce neuroprotection (45% and 40% respectively), as compared to oxidative stress (90%) under this condition. (C) Concentration dependent cytoprotection by C32:6 and C34:6 VLC-PUFA in oxidative-stress induced ARPE-19 cells. A concentration (50-500 nM) kinetic of cytoprotection induced by LCAF 32:6 and 34:6 in RPE cell culture under OS was shown here. […] We decided to use 250 nM concentrations of 32:6 and 34:6 LCAF in subsequent experiments. (D) Selected images of alive and dead cells from this study (control, OS, treatment with C32:6).\nas §1, with “Evidence of cytoprotection by 32.6 and 34.6 VLC-PUFA in oxidative-stress induced ARPE-19 cells as detailed in (FIG. 4): (A) Cytoprotective” for “FIG. 4. (A) Cytoprotective”, “capacities of very long chain” for “capacities of long chain”\nFIG. 5—(A) Effect of PD146176 on VLC-PUFA inhibited apoptosis induced by OS in ARPE-19 cells. […] It is evident that 32:6 and 34:6 LCAF were able to induce a substantial amount (55 and 48% respectively) of neuroprotection compared to PD 146176 (22%) when the stressed cells were treated with 5 μm of 15-LOX-D1 inhibitor. It can be concluded that since PD146176 is the inhibitor of 15-lipooxygenase enzyme, it might be protecting the stressed RPE cells by accumulating neuroprotective agents inside the cells. (B) Comparison of cytoprotective capacities of NPD1, C32:6 and C34:6 VLC-PUFA on oxidative stress-induced apoptosis in 15-LOX-1 cells. Shown here is the comparison of neuroprotection in a 15-LOX-1-deficient cell line under oxidative stress with 32:6 and 34:6 VLC-PUFA along with NPD1. 32:6 and 34:6 VLC-PUFA were able to induce neuroprotection (45% and 40% respectively), as compared to oxidative stress (90%) under this condition. (C) Concentration dependent cytoprotection by C32:6 and C34:6 VLC-PUFA in oxidative-stress induced ARPE-19 cells. A concentration (50-500 nM) kinetic of cytoprotection induced by VLC-PUFA 32:6 and 34:6 in RPE cell culture under OS was shown here. […] We decided to use 250 nM concentrations of 32:6 and 34:6 VLC-PUFA in subsequent experiments. […]"}, "[2]": {"system": "Bim", "test": "Bim protein in ARPE-19 cells under oxidative stress", "type": "cell-based, human", "conditions": "ARPE-19 cells under stress", "source_text": "(§2) FIG. 7. (A) VLC-PUFA and ELV1 and ELV2 compounds mediated downregulation of Bim in ARPE-19 cells under stress. Bim, another class of Bcl2 family, has been tested like Bid in this figure to confirm our previous results. VLC-PUFA and elovanoids protected against the upregulation of Bim by OS, similar to Bid, in RPE cells under stress. (B) VLC-PUFA and elovanoids mediated effect on Bim downregulation in ARPE-19 cells under stress.\nas §2, with “7—A)” for “7. (A)”, “[…]” for “downregulation”, “protected” for “protected against”"}, "[3]": {"system": "Bcl2", "test": "Bcl2 protein in RPE (LOX-D / ARPE-19) cells under oxidative stress", "type": "cell-based, human", "source_text": "FIG. 9. (A) VLC-PUFA and elovanoids ELV1 and ELV2 mediated effect on Bcl2 upregulation in ARPE-19 cells under stress. In this experiment we tested the effect of elovanoid precursors on Bcl2 upregulation along with VLC-PUFA in stressed RPE. (B) Quantification of Bcl2 upregulation by NPD1, ELV1 and ELV2 in LOX-D cells. Bcl2 is an important antiapoptotic protein of the Bcl2 family protein.\nFIG. 9—(A) VLC-PUFA and elovanoids ELV1 and ELV2 mediated effect on Bcl2 upregulation in ARPE-19 cells under stress. In this experiment we tested the effect of elovaniod precursors on Blc2 upregulation along with VLC-PUFA in stressed RPE. (B) Quantification of Bcl2 upregulation by NPD1, ELV1 and ELV2 in LOX-D cells. Bcl2 is an important antiapoptotic protein of the Bcl2 family protein."}}, "data": [{"smiles": "CC/C=C\\C/C=C\\C/C=C\\C/C=C\\C/C=C\\C/C=C\\CCCCCCCCCCCCCCC(=O)O", "note": "[C34:6]", "values": [{"measurement": "neuroprotection (FIG. 5B)", "setting": "[1]; 15-LOX-1-deficient cell line under oxidative stress, compared to oxidative stress (90%)", "result": 40, "unit": "%"}, {"measurement": "protection against cell death under oxidative stress conditions (FIG. 4B)", "setting": "[1]; 15-LOX-D1 cells under oxidative stress", "result": "protect against cell death"}]}, {"smiles": "CC/C=C\\C[C@H](O)\\C=C/C=C/C=C/[C@H](O)C/C=C\\C/C=C\\CCCCCCCCCCCCCCC(=O)O", "note": "[ELV2, (16Z,19Z,22R,23E,25E,27Z,29S,31Z)-22,29-dihydroxytetratriaconta-16,19,23,25,27,31-hexaenoic acid]", "values": [{"measurement": "effect on Bim upregulation by OS (FIG. 7)", "setting": "[2]", "result": "potent downregulation"}, {"measurement": "effect on Bcl2 protein (FIG. 9)", "setting": "[3]", "result": "potent upregulation"}, {"measurement": "activity against OS relative to the related VLC-PUFA (FIG. 4)", "setting": "[1]; as sodium salts or methyl esters", "result": "more potent activity against OS than the related VLC-PUFA"}]}]}
